Active and inactive are the calls of the source. The rule behind the calls is not given here.
What was measured:
[1] = Inhibition of trypsin
[2] = Inhibition of trypsin at 32 degC
[3] = Inhibition of trypsin at 37 degC
[4] = Inhibition of trypsin at 42 degC
[5] = Inhibition of chymotrypsin
[6] = Inhibition of trypsin by classical double reciprocal plot
[7] = Inhibition of trypsin by Dixon plot

- IC50 [1]: 102 µM
- Ki [2]: 102 µM
- Ki [3]: 97.1 µM
- Ki [4]: 94 µM
- Activity [5]: inactive
- Ki [6]: 105 µM
- Ki [7]: 97.1 µM
Compound: O=C(O)c1ccc(C(=O)O)c2c1c(C(=O)O)c1cccnc1[n+]2C(=O)O
